Assay results: publication PMC3871601, “Potential Cooperations between Odorant-Binding Proteins of the Scarab Beetle Holotrichia oblita Faldermann (Coleoptera: Scarabaeidae)” (PLoS ONE, 2013)
Where two headings read alike, the source gives them in different places.

Columns and labels:
HoblOBP3 = HoblOBP3 (Holotrichia oblita, UniProt G9BWQ7); assay: biochemical; type: binding
Description: (§1) N-phenyl-1-naphthylamine (1-NPN) was selected as a probe to measure the affinity of the 1-NPN fluorescent ligand to proteins. A 1-cm light path quartz cuvette was used, and the fluorescence spectra were recorded on a Lengguang 970 CRT spectrofluorimeter (Shanghai Jingmi, China) at room temperature in a right angle configuration. The parameter selection was such that the slit widths for both excitation and emission were 10 nm. 1-NPN was excited at 337 nm and the emission spectra were recorded between 350 and 550 nm. Spectra were recorded using high-speed scanning.
(§2) The 2 µM protein solution was dissolved in 50 mM Tris-HCl buffer with pH 7.4, and the ligands were dissolved in chromatographically pure methanol as a 1 mM stock solution. 1-NPN was dissolved in chromatographically pure methanol as a 1 mM stock solution.
(§3) To determine the dissociation constants, the intensity values corresponding to the maximum fluorescence emission were plotted against free ligand concentrations. Assuming that the protein was 100% active and that the stoichiometric ratio between the protein and ligand was 1:1 at saturation, the bound ligand was determined from the fluorescence intensity values. The curves were then linearized using Scatchard plots. The K1-NPN values were estimated using GraphPad Prism 5 Software by nonlinear regression for a unique binding site. The dissociation constants of the competitors (Ki) were calculated from the corresponding IC50 values using the following equation: Ki = [IC50]/1+[1-NPN]/K1-NPN. […] [1-NPN] represented the free concentration of 1-NPN, and K1-NPN represented the dissociation constant of the complex protein/1-NPN [76].

HoblOBP4 = HoblOBP4 (Holotrichia oblita, UniProt G9BWQ8); assay: biochemical; type: binding
Description: as §1, §2, §3

[1] = HoblOBP3, dash = IC50 exceeded 50 µM, read-out: IC50 (dash)
[2] = HoblOBP3, dash = ligand whose IC50 exceeded 50 µM, Ki not given, read-out: Ki (dash)
[3] = pH 7.4, HoblOBP3, at the ligand concentration 24 µM, protein and 1-NPN both 2 µM, read-out: Int (fluorescence intensity as percent of the initial fluorescence)
[4] = HoblOBP4, calculated from IC50 and K1-NPN, read-out: Ki
[5] = HoblOBP4, protein and 1-NPN both 2 µM, ligand titrated 2–50 µM, read-out: IC50 (concentration of ligand halving the initial fluorescence intensity)
[6] = pH 7.4, HoblOBP4, at the ligand concentration 24 µM, protein and 1-NPN both 2 µM, read-out: Int (fluorescence intensity as percent of the initial fluorescence)
[7] = pH 7.4, read-out: Int (fluorescence intensity as percent of the initial fluorescence)
[8] = HoblOBP4, dash = IC50 exceeded 50 µM, read-out: IC50 (dash)
[9] = HoblOBP4, dash = ligand whose IC50 exceeded 50 µM, Ki not given, read-out: Ki (dash)

Chain of HoblOBP3 (G9BWQ7 entry or part of it): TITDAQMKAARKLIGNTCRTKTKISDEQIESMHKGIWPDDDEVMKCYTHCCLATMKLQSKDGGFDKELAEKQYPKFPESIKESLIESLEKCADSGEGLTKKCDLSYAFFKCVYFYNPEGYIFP
Chain of HoblOBP4 (G9BWQ8 entry or part of it): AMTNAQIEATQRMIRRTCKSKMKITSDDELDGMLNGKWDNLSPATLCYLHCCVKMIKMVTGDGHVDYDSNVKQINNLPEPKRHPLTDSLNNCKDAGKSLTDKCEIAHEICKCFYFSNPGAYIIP

IC50 (HoblOBP3; [1]) [µM] | Ki (HoblOBP3; [2]) [µM] | activity at 24 µM (HoblOBP3; [3]) [%] | Ki (HoblOBP4; [4]) [µM] | IC50 (HoblOBP4; [5]) [µM] | activity at 24 µM (HoblOBP4; [6]) [%] | IC50 (HoblOBP4; [8]) [µM] | Ki (HoblOBP4; [9]) [µM] | Int (fluorescence intensity as percent of the initial fluorescence) (HoblOBP3; HoblOBP3, at the ligand concentration 24 µM, protein and 1-NPN both 2 µM) [%] | Int (fluorescence intensity as percent of the initial fluorescence) (HoblOBP4; HoblOBP4, at the ligand concentration 24 µM, protein and 1-NPN both 2 µM) [%] | Structure (SMILES) | IC50 (HoblOBP3) [µM] | Ki (HoblOBP3) [µM] | activity at 24 µM (HoblOBP3; [7]) [%] | IC50 (HoblOBP4) [µM] | Ki (HoblOBP4) [µM] | activity at 24 µM (HoblOBP4; [7]) [%]
> 50 | > 50 | 68 | 17.7 | 24 | 49 |  |  |  |  | CC[C@H](C)[C@H](N)C(=O)OC [L-Isoleucine methyl ester] |  |  |  |  |  | 
 |  |  |  |  |  |  |  |  |  | CC(=O)CCC=C(C)C [6-Methyl-5-hepten-2-one] | > 50 | > 50 | 78 | 32 | 23.5 | 52
> 50 | > 50 | 74 |  |  | 56 | > 50 | > 50 |  |  | C=CC(=C)CCC=C(C)C [Myrcene] |  |  |  |  |  | 
> 50 | > 50 | 71 | 11.8 | 16 | 46 |  |  |  |  | CCCCCCCCCO [1-Nonanol] |  |  |  |  |  | 
> 50 | > 50 | 66 | 20.6 | 28 | 52 |  |  |  |  | OCCc1ccccc1 [Phenethyl alcohol] |  |  |  |  |  | 
 |  |  |  |  |  |  |  |  |  | CCC/C=C/C=O [trans-2-Hexenal] | > 50 | > 50 | 74 | 11 | 8.1 | 39
> 50 | > 50 |  |  |  |  | > 50 | > 50 | 75 | 54 | CC(C)[C@@H]1CC[C@@H](C)C[C@H]1OC(=O)c1ccccc1O [Menthyl salicylate] |  |  |  |  |  | 
 |  |  |  |  |  |  |  |  |  | C=C1CC/C=C(\C)CC[C@@H]2[C@@H]1CC2(C)C [β-Caryophyllene] | > 50 | > 50 |  | > 50 | > 50 | 
> 50 | > 50 | 91 | 8.8 | 12 | 45 |  |  |  |  | CCCCCCO [1-Hexanol] |  |  |  |  |  | 
 |  |  |  |  |  |  |  |  |  | O=Cc1ccccc1 [Benzaldehyde] | > 50 | > 50 | 68 | 17 | 12.5 | 44
> 50 | > 50 | 81 | 14.7 | 20 | 48 |  |  |  |  | CCCOC(=O)c1ccccc1 [Propyl benzoate] |  |  |  |  |  | 
> 50 | > 50 | 69 | 8.1 | 11 | 40 |  |  |  |  | CCCCOC(=O)c1ccccc1 [Butyl Benzoate] |  |  |  |  |  | 
 |  |  |  |  |  |  |  |  |  | CC/C=C\CCO [cis-3-Hexen-1-ol] | > 50 | > 50 | 81 | 17 | 12.5 | 46
> 50 | > 50 | 70 | 15.4 | 21 | 46 |  |  |  |  | CCCCCCCO [1-Heptanol] |  |  |  |  |  | 
> 50 | > 50 | 70 | 16.9 | 23 | 49 |  |  |  |  | O=C1C=CCCC1 [2-Cyclohexen-1-one] |  |  |  |  |  | 
> 50 | > 50 | 86 | 29.4 | 40 | 54 |  |  |  |  | C=CC(O)CCCCC (stereo not shown) [1-Octen-3-ol] |  |  |  |  |  | 

Structure (SMILES) | IC50 (HoblOBP3; [1]) [µM] | Ki (HoblOBP3; [2]) [µM] | activity at 24 µM (HoblOBP3; [3]) [%] | Ki (HoblOBP4; [4]) [µM] | IC50 (HoblOBP4; [5]) [µM] | activity at 24 µM (HoblOBP4; [6]) [%] | IC50 (HoblOBP4; [8]) [µM] | Ki (HoblOBP4; [9]) [µM] | Int (fluorescence intensity as percent of the initial fluorescence) (HoblOBP3; HoblOBP3, at the ligand concentration 24 µM, protein and 1-NPN both 2 µM) [%] | Int (fluorescence intensity as percent of the initial fluorescence) (HoblOBP4; HoblOBP4, at the ligand concentration 24 µM, protein and 1-NPN both 2 µM) [%] | IC50 (HoblOBP3) [µM] | Ki (HoblOBP3) [µM] | activity at 24 µM (HoblOBP3; [7]) [%] | IC50 (HoblOBP4) [µM] | Ki (HoblOBP4) [µM] | activity at 24 µM (HoblOBP4; [7]) [%]
CCCCCC=O [1-Hexanal] |  |  | 68 |  |  | 42 |  |  |  |  | > 50 | > 50 |  | 15 | 11 | 
CCCCCCC [Heptane] |  |  | 63 |  |  | 43 |  |  |  |  | > 50 | > 50 |  | 16 | 11.8 | 
CCCCCCCC [Octane] | > 50 | > 50 |  | 18.4 | 25 |  |  |  |  |  |  |  | 70 |  |  | 51
C=C(C)C1CC=C(C)CC1 (stereo not shown) [Limonene] |  |  | 56 |  |  | 52 |  |  |  |  | > 50 | > 50 |  | > 50 | > 50 | 
